“And” between values parts separate entries of the source, which are not always exact repeats. Equal entries are not always repeated.

This note sets out measurements from patent publication US10844077B2, “Thiazolyl-containing compounds for treating proliferative diseases” (Dana-Farber Cancer Institute, Inc., priority 2014, dated 2020).

Holding throughout (assay type): cell-based
Assay [1] addresses FER (Homo sapiens (Human), UniProt P16591). As to the kind of experiment: KINATIV assay. The following applies: 1 μM, 90 minutes, BCWM.1 cells. Summed up:
(§1)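 Quantitation by ACTIVX of probe-bound kinases from cell lysates labeled directly with ATP-biotin; compounds run in duplicate, controls in duplicate or quadruplicate.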

The target in assay [2] is MAP2K5 (Homo sapiens (Human), UniProt Q13163). Description: KINATIV assay. The note with it: 1 μM, 90 minutes, BCWM.1 cells. Summed up: as §1
Chain of MAP2K5 (Q13163 whole entry): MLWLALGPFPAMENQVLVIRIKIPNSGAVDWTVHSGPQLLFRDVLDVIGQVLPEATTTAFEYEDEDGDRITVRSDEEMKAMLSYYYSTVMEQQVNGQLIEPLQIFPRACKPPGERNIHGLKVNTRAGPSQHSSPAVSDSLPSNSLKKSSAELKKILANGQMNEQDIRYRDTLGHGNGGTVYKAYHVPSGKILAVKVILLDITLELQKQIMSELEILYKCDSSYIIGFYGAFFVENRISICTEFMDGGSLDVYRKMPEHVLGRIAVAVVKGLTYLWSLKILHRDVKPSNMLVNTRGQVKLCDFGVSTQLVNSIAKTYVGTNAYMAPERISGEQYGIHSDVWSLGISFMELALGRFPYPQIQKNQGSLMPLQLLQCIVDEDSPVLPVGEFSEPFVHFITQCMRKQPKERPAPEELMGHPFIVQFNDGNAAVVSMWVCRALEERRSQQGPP
For assay [3], the target named is NDR2 (Homo sapiens (Human), UniProt Q9Y2H1). Description: KINATIV assay. The note with it: 1 μM, 90 minutes, BCWM.1 cells. The method, boiled down:
as §1

Assay [4] addresses MAP2K4 (Homo sapiens (Human), UniProt P45985). As to the kind of experiment: KINATIV assay. The note with it: 1 μM, 90 minutes, BCWM.1 cells. The method, boiled down:
as §1

Assay [5] concerns the target CHK2 (Homo sapiens (Human), UniProt O96017). Description: KINATIV assay. The following applies: 1 μM, 90 minutes, BCWM.1 cells. The method, boiled down:
as §1

Assay [6] has as its target MST3 (Homo sapiens (Human), UniProt Q9Y6E0). Description: KINATIV assay. The note with it: 1 μM, 90 minutes, BCWM.1 cells. The method, boiled down: as §1
The target in assay [7] is GCK (Homo sapiens (Human), UniProt Q12851). Description: KINATIV assay. The following applies: 1 μM, 90 minutes, BCWM.1 cells. The method, boiled down: as §1
Assay [8] deals with kinases in BCWM.1 cells (Homo sapiens, UniProt P53350). The following applies: PLK1; Lys1; 1 μM, 90 min; GF. Here is the method: (§2) The cells were harvested and lysed. […] Bound kinases were identified and quantitated by ACTIVX as described in Patricelli et al., Biochemistry, 2007, 46(2): 350-358. The compounds were tested in duplicates against duplicate or quadruplicate control samples.

Assay [9] concerns the target kinases in BCWM.1 cells (Homo sapiens, UniProt Q13523). The following applies: PRP4; Lys2; 1 μM, 90 min; GF. Here is the method: as §2
Assay [10] deals with kinases in BCWM.1 cells (Homo sapiens, UniProt Q9H2G2). The following applies: SLK; Lys2; 1 μM, 90 min; GF. Here is the method: as §2
The target of assay [11] is kinases in BCWM.1 cells (Homo sapiens, UniProt Q9UKE5). The note with it: ZC2/TNIK; Lys1; 1 μM, 90 min; GF. The method, then:
as §2

Assay [12] deals with kinases in BCWM.1 cells (Homo sapiens, UniProt O15530). The following applies: PDK1; Lys1; 1 μM, 90 min; GF. Here is the method: as §2
Assay [13] addresses kinases in BCWM.1 cells (Homo sapiens, UniProt Q6PHR2). The following applies: ULK3; Lys2; 1 μM, 90 min; GF. The method, then: as §2
Assay [14] has as its target kinases in BCWM.1 cells (Homo sapiens, UniProt O95747). The note with it: OSR1; Lys2; 1 μM, 90 min; GF. The method, then:
as §2

Assay [15] concerns the target kinases in BCWM.1 cells (Homo sapiens, UniProt P19525). The note with it: PKR; Lys2; 1 μM, 90 min; GF. The method, then:
as §2

In assay [16] the target is kinases in BCWM.1 cells (Homo sapiens, UniProt Q96S44). The note with it: PRPK; ATP Loop; 1 μM, 90 min; GF. The method, then: as §2
Assay [17] addresses kinases in BCWM.1 cells (Homo sapiens, UniProt Q58A45). The following applies: PAN3; Protein Kinase Domain; 1 μM, 90 min; GF. Here is the method:
as §2

Assay [18] has as its target kinases in BCWM.1 cells (Homo sapiens, UniProt Q96BR1). The following applies: SGK3; Lys1; 1 μM, 90 min; GF. Here is the method:
as §2

The target of assay [19] is kinases in BCWM.1 cells (Homo sapiens, UniProt Q15208). The note with it: NDR1; Lys2; 1 μM, 90 min; GF. The method, then:
as §2

For assay [20], the target named is kinases in BCWM.1 cells (Homo sapiens, UniProt Q9Y2I7). The note with it: PIP5K3; ATP; 1 μM, 90 min; GF. Here is the method:
as §2

For assay [21], the target named is kinases in BCWM.1 cells (Homo sapiens, UniProt O94921). Here is the method:
as §2

Assay [22] addresses kinases in BCWM.1 cells (Homo sapiens, UniProt Q86SG6). The note with it: NEK8; Lys2; 1 μM, 90 min; GF. The method, then: as §2
Assay [23] concerns the target kinases in BCWM.1 cells (Homo sapiens, UniProt Q9NYL2). The following applies: ZAK; Lys1; 1 μM, 90 min; GF. Here is the method: as §2
Assay [24] deals with kinases in BCWM.1 cells (Homo sapiens, UniProt Q86UE8). The note with it: TLK2; Lys2; 1 μM, 90 min; GF. The method, then:
as §2

The target of assay [25] is kinases in BCWM.1 cells (Homo sapiens, UniProt P29597). The following applies: TYK2 domain2; Activation Loop; 1 μM, 90 min; GF. The method, then: as §2
For assay [26], the target named is CDK5 (Homo sapiens (Human), UniProt Q00535). As to the kind of experiment: KINATIV assay. The note with it: 1 μM, 90 minutes, BCWM.1 cells. Summed up: as §1
Chain of CDK5 (Q00535 whole entry): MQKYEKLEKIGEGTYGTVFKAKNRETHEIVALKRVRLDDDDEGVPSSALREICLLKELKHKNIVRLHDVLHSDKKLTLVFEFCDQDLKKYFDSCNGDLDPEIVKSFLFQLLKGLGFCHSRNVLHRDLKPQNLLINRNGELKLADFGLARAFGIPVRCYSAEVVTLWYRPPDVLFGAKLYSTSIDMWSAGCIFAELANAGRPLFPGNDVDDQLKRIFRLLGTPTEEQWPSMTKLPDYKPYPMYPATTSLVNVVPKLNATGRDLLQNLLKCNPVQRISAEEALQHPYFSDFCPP
Assay [27] concerns the target MAP2K3 (Homo sapiens (Human), UniProt P46734). As to the kind of experiment: KINATIV assay. The note with it: 1 μM, 90 minutes, BCWM.1 cells. Summed up: as §1
For assay [28], the target named is LOK (Homo sapiens (Human), UniProt O94804). As to the kind of experiment: KINATIV assay. The following applies: 1 μM, 90 minutes, BCWM.1 cells. Summed up:
as §1

Assay [29] concerns the target PIK3C3 (Homo sapiens (Human), UniProt Q8NEB9). As to the kind of experiment: KINATIV assay. The following applies: 1 μM, 90 minutes, BCWM.1 cells. Summed up: as §1
The target of assay [30] is PLK1 (Homo sapiens (Human), UniProt P53350). Description: KINATIV assay. The note with it: 1 μM, 90 minutes, BCWM.1 cells. The method, boiled down: as §1
Assay [31] concerns the target RSK1 domain 1 (Homo sapiens (Human), UniProt Q15418). Description: KINATIV assay. The note with it: 1 μM, 90 minutes, BCWM.1 cells. The method, boiled down:
as §1

Chain of RSK1 domain 1 (Q15418 whole entry, the tested form may be a part): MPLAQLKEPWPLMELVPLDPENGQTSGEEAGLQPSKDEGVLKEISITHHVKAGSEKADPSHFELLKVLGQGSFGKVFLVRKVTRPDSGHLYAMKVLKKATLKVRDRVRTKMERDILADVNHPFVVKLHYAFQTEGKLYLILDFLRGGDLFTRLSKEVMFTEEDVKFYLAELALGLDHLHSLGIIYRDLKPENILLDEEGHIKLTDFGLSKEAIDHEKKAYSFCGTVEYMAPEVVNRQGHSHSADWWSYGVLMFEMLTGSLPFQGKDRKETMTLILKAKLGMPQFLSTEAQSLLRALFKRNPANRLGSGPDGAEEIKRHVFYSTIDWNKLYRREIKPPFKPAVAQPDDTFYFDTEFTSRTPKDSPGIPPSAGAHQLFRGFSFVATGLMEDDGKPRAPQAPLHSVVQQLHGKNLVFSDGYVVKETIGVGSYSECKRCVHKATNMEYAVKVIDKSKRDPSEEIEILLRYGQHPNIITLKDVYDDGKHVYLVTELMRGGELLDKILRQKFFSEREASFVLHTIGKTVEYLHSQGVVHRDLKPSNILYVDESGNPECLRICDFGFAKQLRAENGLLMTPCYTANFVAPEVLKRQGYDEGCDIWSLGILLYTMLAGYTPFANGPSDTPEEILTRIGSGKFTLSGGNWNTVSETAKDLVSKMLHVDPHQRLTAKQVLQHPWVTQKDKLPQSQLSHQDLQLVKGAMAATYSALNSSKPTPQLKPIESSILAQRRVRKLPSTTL
Chain of MAP2K4 (P45985 whole entry): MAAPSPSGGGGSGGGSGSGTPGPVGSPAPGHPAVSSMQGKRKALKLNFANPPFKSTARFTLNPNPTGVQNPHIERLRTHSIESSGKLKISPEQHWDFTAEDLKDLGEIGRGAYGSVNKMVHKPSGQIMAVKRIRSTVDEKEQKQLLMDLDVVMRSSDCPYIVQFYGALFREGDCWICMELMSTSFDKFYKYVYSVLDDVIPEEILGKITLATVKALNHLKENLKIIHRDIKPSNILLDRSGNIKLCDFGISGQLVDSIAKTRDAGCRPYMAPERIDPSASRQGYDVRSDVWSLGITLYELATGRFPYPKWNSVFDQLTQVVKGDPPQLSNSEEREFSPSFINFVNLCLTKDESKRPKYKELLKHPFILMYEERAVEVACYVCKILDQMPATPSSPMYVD
Chain of FER (P16591 whole entry): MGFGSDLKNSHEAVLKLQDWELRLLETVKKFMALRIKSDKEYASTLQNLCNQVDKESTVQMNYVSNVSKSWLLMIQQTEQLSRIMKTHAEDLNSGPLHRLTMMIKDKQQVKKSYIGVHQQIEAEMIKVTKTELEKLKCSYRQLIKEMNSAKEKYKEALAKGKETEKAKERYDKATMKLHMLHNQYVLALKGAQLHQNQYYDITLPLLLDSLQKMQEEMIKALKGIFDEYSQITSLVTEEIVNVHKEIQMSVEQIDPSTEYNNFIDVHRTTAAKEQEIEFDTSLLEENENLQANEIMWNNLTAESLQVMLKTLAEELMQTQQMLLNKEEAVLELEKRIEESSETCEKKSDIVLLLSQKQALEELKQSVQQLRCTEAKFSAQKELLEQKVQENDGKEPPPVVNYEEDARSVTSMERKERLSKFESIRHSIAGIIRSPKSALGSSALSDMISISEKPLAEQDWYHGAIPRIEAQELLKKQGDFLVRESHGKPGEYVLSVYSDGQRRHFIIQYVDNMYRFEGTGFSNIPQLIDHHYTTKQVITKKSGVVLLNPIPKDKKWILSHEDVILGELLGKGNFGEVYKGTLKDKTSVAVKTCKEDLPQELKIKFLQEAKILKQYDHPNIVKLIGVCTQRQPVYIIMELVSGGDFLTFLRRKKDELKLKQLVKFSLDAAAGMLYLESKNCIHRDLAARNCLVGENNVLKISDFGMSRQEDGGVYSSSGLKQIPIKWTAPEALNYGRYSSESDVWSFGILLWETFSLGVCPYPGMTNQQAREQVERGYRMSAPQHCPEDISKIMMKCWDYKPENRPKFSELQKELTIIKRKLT
Chain of LOK (O94804 whole entry): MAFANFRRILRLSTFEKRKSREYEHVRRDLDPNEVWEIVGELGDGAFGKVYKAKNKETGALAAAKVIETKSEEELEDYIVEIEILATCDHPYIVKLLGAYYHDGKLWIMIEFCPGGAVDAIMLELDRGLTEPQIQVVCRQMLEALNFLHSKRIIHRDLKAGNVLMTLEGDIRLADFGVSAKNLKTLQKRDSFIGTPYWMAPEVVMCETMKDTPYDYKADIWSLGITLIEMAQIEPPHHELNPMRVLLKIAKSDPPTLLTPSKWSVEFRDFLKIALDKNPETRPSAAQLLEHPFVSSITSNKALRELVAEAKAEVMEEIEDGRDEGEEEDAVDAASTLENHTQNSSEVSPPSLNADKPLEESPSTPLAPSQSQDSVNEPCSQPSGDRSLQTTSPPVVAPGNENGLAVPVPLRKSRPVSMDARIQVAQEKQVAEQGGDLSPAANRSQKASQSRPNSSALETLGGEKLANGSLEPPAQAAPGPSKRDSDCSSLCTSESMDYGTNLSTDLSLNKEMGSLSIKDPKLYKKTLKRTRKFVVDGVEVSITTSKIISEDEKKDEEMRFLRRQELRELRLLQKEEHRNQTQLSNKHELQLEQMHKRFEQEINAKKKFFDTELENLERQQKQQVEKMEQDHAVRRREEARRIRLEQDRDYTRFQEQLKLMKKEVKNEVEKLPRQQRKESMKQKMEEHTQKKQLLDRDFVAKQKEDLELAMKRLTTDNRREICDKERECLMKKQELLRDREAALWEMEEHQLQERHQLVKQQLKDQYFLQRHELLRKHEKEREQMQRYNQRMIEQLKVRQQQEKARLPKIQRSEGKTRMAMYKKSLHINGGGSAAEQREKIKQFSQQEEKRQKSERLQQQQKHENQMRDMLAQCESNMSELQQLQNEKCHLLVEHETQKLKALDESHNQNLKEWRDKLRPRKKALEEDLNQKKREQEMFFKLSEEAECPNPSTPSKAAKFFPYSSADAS
Chain of CHK2 (O96017 whole entry): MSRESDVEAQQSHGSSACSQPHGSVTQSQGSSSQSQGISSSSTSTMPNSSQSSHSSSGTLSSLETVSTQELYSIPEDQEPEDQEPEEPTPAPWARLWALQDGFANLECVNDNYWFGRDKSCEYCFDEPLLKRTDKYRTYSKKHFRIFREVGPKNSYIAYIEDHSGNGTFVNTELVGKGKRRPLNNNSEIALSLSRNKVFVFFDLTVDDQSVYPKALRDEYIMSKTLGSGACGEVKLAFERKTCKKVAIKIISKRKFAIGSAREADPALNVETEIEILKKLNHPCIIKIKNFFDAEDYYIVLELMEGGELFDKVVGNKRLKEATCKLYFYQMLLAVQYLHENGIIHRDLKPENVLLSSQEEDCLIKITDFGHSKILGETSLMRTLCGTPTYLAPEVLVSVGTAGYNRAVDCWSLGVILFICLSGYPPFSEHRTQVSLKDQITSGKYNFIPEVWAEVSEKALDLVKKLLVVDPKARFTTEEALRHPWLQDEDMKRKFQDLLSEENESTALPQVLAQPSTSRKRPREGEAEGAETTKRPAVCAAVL
Chain of MAP2K3 (P46734 whole entry): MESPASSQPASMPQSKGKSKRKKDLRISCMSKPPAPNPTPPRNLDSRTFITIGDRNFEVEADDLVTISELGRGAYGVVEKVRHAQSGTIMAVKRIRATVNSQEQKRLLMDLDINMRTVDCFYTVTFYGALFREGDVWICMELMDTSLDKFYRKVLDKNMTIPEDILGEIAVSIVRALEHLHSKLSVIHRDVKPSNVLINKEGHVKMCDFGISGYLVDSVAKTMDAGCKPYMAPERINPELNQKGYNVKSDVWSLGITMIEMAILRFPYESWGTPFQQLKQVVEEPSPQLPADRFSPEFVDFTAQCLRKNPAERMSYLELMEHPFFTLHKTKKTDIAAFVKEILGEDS
Chain of MST3 (Q9Y6E0 whole entry): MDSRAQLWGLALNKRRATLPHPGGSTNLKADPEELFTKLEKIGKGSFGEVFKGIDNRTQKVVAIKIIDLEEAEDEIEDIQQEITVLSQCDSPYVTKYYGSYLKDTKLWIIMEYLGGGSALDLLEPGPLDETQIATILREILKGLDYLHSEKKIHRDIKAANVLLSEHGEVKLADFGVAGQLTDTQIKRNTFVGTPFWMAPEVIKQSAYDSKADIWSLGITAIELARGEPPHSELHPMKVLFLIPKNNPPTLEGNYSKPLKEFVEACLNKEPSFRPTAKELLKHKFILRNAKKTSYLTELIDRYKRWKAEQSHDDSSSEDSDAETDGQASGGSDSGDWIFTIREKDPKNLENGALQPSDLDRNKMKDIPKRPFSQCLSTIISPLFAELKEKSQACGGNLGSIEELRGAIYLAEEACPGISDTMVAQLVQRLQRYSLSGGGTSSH

Regarding `C=CC(=O)N1CCC(CNc2nccc(Nc3ncc(C(=O)Nc4c(C)cccc4C)s3)n2)C1` (racemic) [Example I-8], the “% change of MS signal compared to control sample” value (“% change of MS signal” below) is −7.7% and −4.8% in [1]; 19.2% and 30.9% in [2]; 1.9% and 9.1% in assay [3]; −8.5% and −6.1% in assay [4]; −14.3% and −10.9% in [5]; −1.5% and −7.7% in [6]. Besides, the “% change of MS signal” value in assay [7] was 2.0% and 2.4%.

In the case of `C=CC(=O)N1CC[C@H](Nc2nccc(Nc3ncc(C(=O)Nc4c(C)cccc4C)s3)n2)C1` [Example I-3], the “% change of MS signal” value in [8] is listed as −23%; in assay [9], −6.2%; in [10], 1.6%; in [11] it was 32.9%; in assay [12], −3.5%; in assay [13], −47.2%. Moreover, the “% change of MS signal” value in [14] is listed as 4%; in [15], −17.6%; in assay [16] it was 17.3%; in [17] it was 2.5%; in assay [18] it was −18.5%; in assay [19] it was −5.5%. The “% change of MS signal” value in assay [20] is listed as −4.6%; in [21], −6.6%; in assay [22], −14.5%; in assay [23], 21.2%; in [24], 4.7%; in assay [25], −5.5%.

Regarding `C=CC(=O)N1CC[C@@H](Nc2nccc(Nc3ncc(C(=O)Nc4c(C)cccc4C)s3)n2)C1` [Example I-4], the “% change of MS signal” value is −7.1% and −7.2% in [26]; −42.0% in [3]; −12.3% and −18.8% in [27]; −27.4% in assay [28]; −14.1% and −5.5% in assay [29]; 17.4% in assay [30]. For the same compound, the “% change of MS signal” value was −48.8% in assay [4]; −7.9% and 1.0% in [5]; −62.2% and −53.4% in [31].

For `C=CC(=O)N1CCCCC(Nc2nccc(Nc3ncc(C(=O)Nc4c(C)cccc4C)s3)n2)C1` (centres unmarked) [Example I-7], the “% change of MS signal” value in assay [1] was −5.8% and −5.3%; in [2], 37.6% and 45.7%; in assay [7], −12.2% and −4.1%.

As to `CCC(=O)N1CC[C@H](Nc2nccc(Nc3ncc(C(=O)Nc4c(C)cccc4C)s3)n2)C1` [Example I-9], the “% change of MS signal” value in assay [8] was 9.6%; in assay [9] it was −15.7%; in assay [10], 4.3%; in [11] it was 11.4%; in assay [12] it was −6.6%; in assay [13], −9.6%. The “% change of MS signal” value in assay [14] is reported as 13.9%; in assay [15] it was −3.8%; in [16], −1.2%; in assay [17], 4%; in assay [18] it was −1.1%; in [19], 2.8%. Moreover, the “% change of MS signal” value in [20] was −4.6%; in assay [21] it was −3.1%; in assay [22], −5.8%; in assay [23], 12.1%; in assay [24], −1.9%; in assay [25] it was −16.8%.

For `C=CC(=O)N1CCC(Cn2ccc(Nc3ncc(C(=O)Nc4c(C)cccc4Cl)s3)n2)C1` (centres unmarked) [II-1], the “% change of MS signal” value in assay [26] is −11.2% and −8.0%; in [27], −19.5% and −15.9%; in [28], −5.5% and −15.4%; in assay [29], −4.7% and −11.6%; in assay [30], 0.5% and −0.2%; in [6], 5.9% and 2.0%. Moreover, in [31], the “% change of MS signal” value is reported as −76.3%.
